Columns and labels:
Assay type in all cases: binding
Or22a [1] = biological target: T1, Or22a (Drosophila melanogaster, UniProt P81909); experiment: EIS sensor, Or22a nanodiscs on gold electrode (Example 4)
T1 sequence (P81909 1-397): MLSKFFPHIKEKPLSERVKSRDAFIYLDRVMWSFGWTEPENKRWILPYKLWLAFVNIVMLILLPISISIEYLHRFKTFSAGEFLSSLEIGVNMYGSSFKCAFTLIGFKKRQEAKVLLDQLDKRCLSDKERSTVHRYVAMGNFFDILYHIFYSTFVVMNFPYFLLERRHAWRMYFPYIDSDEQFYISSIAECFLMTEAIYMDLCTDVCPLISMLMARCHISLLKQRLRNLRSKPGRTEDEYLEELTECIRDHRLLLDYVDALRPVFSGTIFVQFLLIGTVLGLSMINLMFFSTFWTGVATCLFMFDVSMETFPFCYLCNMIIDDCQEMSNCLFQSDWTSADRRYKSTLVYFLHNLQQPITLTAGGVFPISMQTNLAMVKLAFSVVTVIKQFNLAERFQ

Or10a [2] = biological target: T2, Or10a (Drosophila melanogaster, UniProt Q9VYZ1); experiment: CNT-FET sensor covalently functionalized with OR10a nanodiscs (Example 3); conditions: for current response: increasing additions of ligand
T2 sequence (Q9VYZ1 1-406): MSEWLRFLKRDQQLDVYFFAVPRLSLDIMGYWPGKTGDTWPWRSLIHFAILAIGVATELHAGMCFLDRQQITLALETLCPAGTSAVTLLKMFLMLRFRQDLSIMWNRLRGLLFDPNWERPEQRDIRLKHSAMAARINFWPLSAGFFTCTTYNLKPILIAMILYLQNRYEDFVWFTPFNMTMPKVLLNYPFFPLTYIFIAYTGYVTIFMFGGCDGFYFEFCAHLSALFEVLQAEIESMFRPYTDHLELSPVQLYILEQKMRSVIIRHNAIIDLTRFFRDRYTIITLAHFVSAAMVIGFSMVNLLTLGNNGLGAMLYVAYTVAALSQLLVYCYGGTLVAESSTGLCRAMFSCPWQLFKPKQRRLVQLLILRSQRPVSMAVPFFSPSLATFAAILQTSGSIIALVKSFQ
Protocol: The dispersion was sonicated until a clear solution was obtained. The temperature was kept at 25° C. throughout the sonication process. The thiolpyridine solution was prepared by dissolving 10 mg of 2-Mercaptopyridine (99%, Sigma Aldrich) in 1 ml of methanol. The solution was spun coated on a polydimethylsiloxane (PDMS) surface at 2000 rpm for one minute. Before the spin coating process, the PDMS surface was cleaned by a 50 W Oxygen plasma for 1 minute to improve the wettability. The cleaned substrates were placed upside down on the PDMS surface for three minutes and washed in ethanol to remove the excess thiolpyridine molecules. Then the substrates were transferred into the CNT suspension and immersed into the suspension for 10 minutes. The samples were removed from the suspension and dipped into Ethanol for another 10 minutes to remove the thiolpyridine molecules in the SWNT network. The alignment markers were deposited by defining the markers by photolithography and thermal evaporation of 5 nm Chromium and 50 nm of Gold. The metal Lift off was done by acetone immersion for 15 minutes followed by an Isopropyl alcohol (IPA) wash and N2 blow dry. The result is a uniform thin film CNT network covering the entire substrate surface. The purification procedure is a variation on the one detailed in […] et al. 2013^14. […] The cell pellet was collected by centrifugation at 3800 g for 10 min at room temperature and then resuspended in 40 mL of resuspension buffer A (20 mM Tris/HCl pH 7.5, 100 mM NaCl, 1× protease inhibitor cocktail (Roche Diagnostics GmbH, Germany)), with 25 U/mL Benzonase, then lysed by two passes on an Emulsiflex C5 emulsifier (Avestin, Germany) at 10,000-15,000 psi. The sample was then centrifuged at 1000 g for 5 min to remove whole cells and nuclei. The supernatant was removed and spun at 100,000 g for 1 h at 4° C. The membrane pellet was resuspended in 40 mL of buffer A with 1% w/v detergent (Zwittergent 3-16) and rotated for 1 h at room temperature at 10 rpm. The sample was then centrifuged at 100,000 g for 1 h at 18° C. The supernatant was removed and loaded onto a 1 mL NiNTA column (GE Healthcare) where the zwittergent 3-16 detergent was exchanged to Fos-Choline 14 (FC-14). The column was washed in ten column volumes of buffer B (20 mM Tris/HCl pH 7.5, 3.6 mM FC-14) with 300 mM NaCl and 20 mM imidazole, and a further ten column volumes of buffer B with 100 mM NaCl and 50 mM imidazole. Protein was eluted with four column volumes buffer B with 100 mM NaCl and 500 mM imidazole. Purity was assessed on Coomassie stained SDS-PAGE gels and Western blotting. Purification was completed with a final size exclusion chromatography (SEC) step. […]

Or22a [3] = biological target: T1, Or22a; experiment: EIS sensor, Or22a liposomes on gold electrode, optimized conditions (Example 5)
Or10a [4] = biological target: T2, Or10a; experiment: EIS sensor, Or10a liposomes on gold electrode, optimized conditions (Example 5)

| Structure (SMILES) | EIS response to control ligand (Or22a [1]) | current response (Or10a [2]; nanodiscs 1:100 dilution) | LOD (Or22a [1]; EIS) [pM] | LOD (Or22a [3]; EIS) [fM] | EIS response to control ligand (Or10a [4]) | EIS response to control ligand (Or22a [3]) | LOD (Or10a [4]; EIS) [pM] | limit of detection (Or10a [2]; nanodiscs 1:100 dilution) | concentration at which clear electronic response starts (Or10a [2]; real time current measurement mode) [fM] |
| --- | --- | --- | --- | --- | --- | --- | --- | --- | --- |
| CCC/C=C/C=O [E2-hexenal] | do not respond | no response | – | – | – | – | – | – | – |
| CCCCCC(=O)OC [methyl hexanoate] | – | – | < 100 | 10 | do not respond | – | – | – | – |
| COC(=O)c1ccccc1O [methyl salicylate] | – | consistently large decreases | – | – | – | do not respond | 1 | below 1 fM | 1 |
